In patent US12552796B2, “EED inhibitor, and preparation method therefor and use thereof” (SHANGHAITECH UNIVERSITY, priority 2019, dated 2026):
pIC50: −log10 of the molar value. Like-named read-outs stand apart in the source and are kept apart here. Blank lines part the entries; values can stand above or below the molecule they belong to.

What was measured:
[1] = system: WSU-DLCL2 cells; assay: Cell proliferation assay, WSU-DLCL2; type: cell-based; conditions: Homo sapiens
Protocol: (§1) Human B-cell non-Hodgkin's lymphoma cells WSU-DLCL2, Karpas422 and Pfeiffer were cultured in cell culture flasks in a sterile incubator with 95% relative humidity and 5% CO2 at 37° C. The medium was RPMI-1640 (Gibco, product No. 31800022) containing 15% fetal bovine serum (FBS, Gibco, product No. 10099141) and 0.1% penicillin/streptomycin solution (P/S). In order to assay the effects of compounds on cell proliferation, cells in exponential growth phase were seeded into a 12-well plate (Nunc, product No. 150628) with 1 mL of medium per well, wherein WSU-DLCL2 and Karpas422 were seeded at a density of 1×10^5 cells/well, and Pfeiffer was seeded at a density of 2×10^5 cells/well. At the same time, different concentrations of compounds were added to the wells that had seeded with cells (6 concentrations were set for each compound at 3-fold serial dilution), and the final concentration of DMSO was 0.1%. After that, the number of viable cells was determined by Vi-CELL (Beckman Coulter) for WSU-DLCL2 and Pfeiffer every 3 days, and for Karpas422 on days 4, 7, and 11, respectively. The cells counted each time were seeded into a new 12-well plate at the same density, and supplemented with fresh medium to 1 mL. Different concentrations of compounds were added at the same time. WSU-DLCL2 and Pfeiffer were cultured to the 9th day, and Karpas422 was cultured to the 14th day. Cell data were collected uniformly, and analyzed with GraphPad prisim5. Dose curves were fitted, and IC50 values of the assay compounds were obtained.

[2] = system: cellular H3K27 methylation; assay: Cellular H3K27 methylation assay (Western blot of H3K27me3 in HeLa cells); type: cell-based; conditions: Homo sapiens, 72 h, read-out: PD IC50
[3] = system: Karpas422 cells; assay: Cell proliferation assay, Karpas422; type: cell-based; conditions: Homo sapiens
Protocol: as §1

[4] = Pharmacokinetic study in rats; type: in vivo, SD rats; conditions: rat; for AUC(0-inf) / Cmax / Tmax / clearance / half-life / MRT inf: male, SD, plasma; for MRT inf: read-out: MRT0-∞
Protocol: Six SPF SD rats, male, weighing 180-220 g, were randomly divided into 2 groups with 3 rats in each group. The compounds of the present disclosure were administered by oral gavage (PO) and intravenous injection (IV), respectively, and the assay compounds were formulated with a vehicle (5% DMSO+10% Solutol+85% pH 4.65 Acetate buffer).
Dosage: 1 mg/kg for intravenous injection and 2 mg/kg for oral administration.
Dosing volume: 5 mL/kg for intravenous injection and 10 mL/kg for oral administration.
The oral administration group was fasted overnight (10-14 h) before the assay, and drank water freely. After 4 hours of administration, they were fed uniformly. They were weighed before administration, and the dosage was calculated according to the body weight.
Intravenous administration: 0.083, 0.25, 0.5, 1, 2, 4, 6, 8, 10 and 24 h after administration;
Oral gavage administration: 0.25, 0.5, 1, 2, 4, 6, 8, 10, 12 and 24 h after administration;
Blood was collected from the jugular vein of rats at the above set time points, about 0.2 mL each time. The blood was anticoagulated with heparin sodium, placed on ice after collection, and centrifuged within 1 hour to separate the plasma (centrifugation conditions: 6800 g, 6 minutes, 2-8° C.). Plasma samples were stored in a −80° C. freezer prior to analysis.
The concentration of each compound in rat plasma was determined by LC/MS/MS method.
Through the plasma drug concentration data at different time points, pharmacokinetic parameters were calculated using Phoenix WinNonlin 7.0, thereby providing parameters such as AUC0-t, AUC0-∞, MRT0-∞, Cmax, Tmax, and T1/2 and mean and standard deviation thereof.

[5] = WSUDLCL2, WSU-DLCL2 cells, cultured to the 9th day, read-out: Anti-proliferation IC50
[6] = HeLa cells, 3 days, H3K27me3 level by Western blot
[7] = KARPAS-422, Karpas422 cells, cultured to the 14th day, read-out: Anti-proliferation IC50
[8] = WSUDLCL2, read-out: Anti-proliferation IC50

SMILES: CS(=O)(=O)c1ccc(-c2cnc(NCc3ccco3)n3cnnc23)cc1 [EED226, reference compound]
- pIC50 [1, 5]: 6.88
- pIC50 [2, 6]: 6.66
- pIC50 [3, 7]: 6.91

SMILES: CN(C)C(=O)c1cnc(NCc2c(F)ccc3c2CCO3)n2cnnc12 [HJM-025]
- pIC50 [1, 8]: 7.58
- pIC50 ([2]; HeLa): 7.36

SMILES: O=C(c1cnc(NCc2c(F)ccc3c2CCO3)n2cnnc12)N1CCOCC1 [HJM-027]
- pIC50 [1, 5]: 7.24
- pIC50 [2, 6]: 7.05

SMILES: O=C(Nc1cnc(NCc2c(F)ccc3c2CCO3)n2cnnc12)C1CCCO1 (stereo not shown) [HJM-037]
- pIC50 [1, 5]: 6.94
- pIC50 [2, 6]: 7.19

SMILES: O=C(Nc1cnc(NCc2c(F)ccc3c2CCO3)n2cnnc12)c1ccccc1 [HJM-042]
- pIC50 [1, 5]: 7.09
- pIC50 [2, 6]: 7.22

SMILES: O=C1CCCN1c1cnc(NCc2c(F)ccc3c2CCO3)n2cnnc12 [HJM-067]
- pIC50 [1, 8]: 7.53
- pIC50 ([2]; HeLa): 7.68
- pIC50 ([3]; KARPAS-422, read-out: Anti-proliferation IC50): 7.29
- AUC(0-inf) ([4]; IV, 1 mg/kg): 695 ng·h/mL
- Cmax ([4]; IV, 1 mg/kg): 946 ng/mL
- Tmax ([4]; IV, 1 mg/kg): 4.8 min
- clearance ([4]; IV, 1 mg/kg): 24.1 mL/min/kg
- half-life ([4]; IV, 1 mg/kg): 180 min
- MRT inf ([4]; IV, 1 mg/kg): 0.8 h
- AUC(0-inf) ([4]; PO, 2 mg/kg): 846 ng·h/mL
- Cmax ([4]; PO, 2 mg/kg): 306 ng/mL
- Tmax ([4]; PO, 2 mg/kg): 49.8 min
- half-life ([4]; PO, 2 mg/kg): 182 min
- MRT inf ([4]; PO, 2 mg/kg): 2.7 h
- F ([4]; PO, 2 mg/kg): 60.72%

SMILES: CC(F)C(=O)Nc1cnc(NCc2c(F)ccc3c2CCO3)n2cnnc12 (stereo not shown) [HJM-072]
- pIC50 [1, 5]: 6.92
- pIC50 [2, 6]: 7.52

Second part, led by results:

- pIC50 [2, 6]: 7.58
SMILES: Fc1ccc2c(c1CNc1ncc(OC3CCC3)c3nncn13)CCO2 [HJM-017]
- pIC50 [1, 5]: 6.95

- pIC50 [2, 6]: 7.53
SMILES: Fc1ccc2c(c1CNc1ncc(OCC3CC3)c3nncn13)CCO2 [HJM-019]
- pIC50 [1, 5]: 7.14

- pIC50 [2, 6]: 7.40
SMILES: Fc1ccc2c(c1CNc1ncc(OCC3CCOCC3)c3nncn13)CCO2 [HJM-020]
- pIC50 [1, 5]: 7.31

- pIC50 [2, 6]: 7.57
- pIC50 [3, 7]: 7.38
- AUC(0-inf) ([4]; IV, 1 mg/kg): 1230 ng·h/mL
- Cmax ([4]; IV, 1 mg/kg): 1500 ng/mL
- Tmax ([4]; IV, 1 mg/kg): 4.8 min
- clearance ([4]; IV, 1 mg/kg): 13.6 mL/min/kg
- half-life ([4]; IV, 1 mg/kg): 102 min
- MRT inf ([4]; IV, 1 mg/kg): 1.02 h
- AUC(0-inf) ([4]; PO, 2 mg/kg): 1450 ng·h/mL
- Cmax ([4]; PO, 2 mg/kg): 394 ng/mL
- Tmax ([4]; PO, 2 mg/kg): 25.2 min
- half-life ([4]; PO, 2 mg/kg): 79.2 min
- MRT inf ([4]; PO, 2 mg/kg): 2.93 h
- F ([4]; PO, 2 mg/kg): 58.53%
SMILES: O=C(Nc1cnc(NCc2c(F)ccc3c2CCO3)n2cnnc12)C1CC1 [HJM-030]
- pIC50 [1, 5]: 7.40

- pIC50 [2, 6]: 7.40
SMILES: O=C(CC1CC1)Nc1cnc(NCc2c(F)ccc3c2CCO3)n2cnnc12 [HJM-031]
- pIC50 [1, 5]: 7.09

- pIC50 [2, 6]: 7.59
SMILES: O=C(CCC(F)(F)F)Nc1cnc(NCc2c(F)ccc3c2CCO3)n2cnnc12 [HJM-033]
- pIC50 [1, 5]: 7.02

- pIC50 [2, 6]: 7.41
SMILES: CN(C(=O)CC1CC1)c1cnc(NCc2c(F)ccc3c2CCO3)n2cnnc12 [HJM-073]
- pIC50 [1, 5]: 7.53
